One series deals with P–gp. Nature of the series: Partition coefficient to membrane protein from Equations (1) and (2), binding to P–gp only. The series is classed as physicochemical, mouse. The following applies: binding to the protein P–gp only; for KPW→P: aqueous phase to protein; for KPLb→P: lipid bilayer to protein. An excerpt:
(§1) From the partition coefficient obtained for the native membranes, KPW→M , and that for the model lipid bilayers, KPW→Lb , one can calculate the partition coefficient between the aqueous phase and the proteins in the membrane, KPW→P , and from the lipid bilayer to the proteins, KPLb→P , Equations (1) and (2), [40]. (1) KPW→M VM=KPW→PVP+KPW→Lb VLb (2) KPLb→P=KPW→P/KPW→Lb
(§2) In Equation (1) it is necessary to include the volume occupied by the proteins, and the values obtained will, therefore, depend on whether it is considered that the amphiphile may interact with all proteins in the membrane or with P–gp only.

Series [1] can be described thus: Association (partition) with model membranes (LUVs POPE:POPC:POPS 45:35:20). The series is classed as physicochemical. To be noted: aqueous phase to model lipid bilayer. How it is done:
The model membranes with a phospholipid composition representative of that of the native membranes (POPE:POPC:POPS 45:35 20) were prepared from stock solutions of the required lipids in chloroform or in chloroform/methanol (87/13, v/v), as described before. The solvent-free lipid residue was hydrated at 40 °C with previously heated simplified ATPase assay buffer (with all components except Ouabain and DTT). Large Unilamelar Vesicles were prepared by extrusion through two-staked polycarbonate filters (100 nm pore diameter), and the size of the LUVs was analyzed by dynamic light scattering (Zetasizer Nano ZS, Malvern, UK) being close to the filter pore size.
The membranes were diluted to the chosen concentration with simplified ATPase assay buffer and warmed to 37 °C. The NBD amphiphiles were added from stocks in DMSO (final DMSO 1% v/v) by squirting the required volume into the membrane solution under gentle vortex. Fluorescence intensity was measured after 15 to 30 min incubation at 37 °C using a Cary Eclipse spectrofluorimeter (Varian, Singapore). The path length of the sample container was selected to guarantee that scattering at the excitation wavelength was smaller than 0.1 while maintaining a good signal/noise ratio (3, 5, or 10 mm).
The increase in fluorescence of the NBD amphiphiles when associated with the model membranes was well described by a simple partition (Equation (S3)). The low affinity of the less lipophilic amphiphiles for the native membranes required the use of high membrane concentrations, and the fluorescence was measured with the plate reader SpectraMax iD5 (Molecular Devices, Berkshire, UK), where the reading setup is not very sensitive to scatter. To guarantee that the high scatter intensity was not leading to artifacts in the measured fluorescence intensity of NBD–C4, titrations of NBD-C6 and NBD–C8 were also performed in the same plate. For these two latter amphiphiles, the results obtained for the partition coefficient were similar to those obtained for experiments with low scatter intensity. A small decrease in the fluorescence intensity from NBD–C8 was nevertheless observed at very high scatter intensities (OD ≥ 0.5), which was used to correct the signal from the less lipophilic amphiphiles, see Supplementary Information (Figure S5 and Equation (S4)). The molar volume considered for the lipid was 0.8 dm^3/mol, and 1.2 g/mL was considered for the density of the membrane proteins.
S3 – Partition of the NBD amphiphiles to lipid bilayers and native membranes
The fluorescence increase that accompanies the association of the NBD amphiphiles with the
model membra nes was well defined by a simple partition, equation S3.
If 1540 nm Lb= + S3, KVL[]
where IfW and If M are respec ti vel y the fluorescence intensity when all fluorescent amphiphile is
in the aqueous phase and ass oci ated with the membranes, LbK is the partition co eff icient P
between the aqueous and the lipid bilayer, V is the molar vo l u m e of the lipid when in the lipid L
bi l ayer, and [L] is the lipid concentration. […]

Series [2] in a line: Partition coefficient to membrane proteins from Equations (1) and (2), all membrane proteins with equal affinity. The series is classed as physicochemical, High-Five insect cells. To be noted: binding to all membrane proteins with equal affinity; for KPW→P: aqueous phase to proteins; for KPLb→P: lipid bilayer to proteins.
Source text: as §1, §2

Series [3] can be described thus: Critical aggregation concentration from NBD fluorescence (literature). The series is classed as physicochemical. To be noted: extrapolated from the co-solvent effect on NBD–Cn. An excerpt:
One important aspect which is usually overlooked in the studies of interactions with P–gp is whether the molecule of interest is in its monomeric state or aggregated. Some studies with detergents have included information regarding the formation of micelles and concluded that a complex effect on the ATPase activity (enhancement and inhibition) is observed even for concentrations below their CMC [21, 32, 91]. However, small aggregates are formed at concentrations several orders of magnitude smaller than the concentration at which micelles are detectable (their CMC). The aggregation behavior of the NBD amphiphiles used in this study was characterized by changes in the fluorescence properties of the NBD group and is, therefore, sensitive to the formation of small aggregates including dimers. The critical aggregation concentrations (CAC) at 25 °C are 1, 4, and 250 μM for NBD–C8, NBD–LysoMPE, and NBD–C4, respectively. […] An increase to at least 24 µM is thus predicted for NBD–LysoMPE.

Where [4] appears, read: section: binding to all membrane proteins with equal affinity.
The mark [5] stands for this setting: section: binding to the protein P–gp only.

Structures are written as SMILES.

Consider `CCCCNc1ccc([N+](=O)[O-])c2nonc12` [NBD–C4], for which the KPW→P in the series on P–gp is listed as 6.9 × 10^4; in series [2], 6.9 × 10^2. Moreover, the KPLb→P in the series with P–gp was 176; in series [2] it was 1.8. Moreover, the KPW→Lb in series [1] (setting [4]) and in series [1] (setting [5]) was 3.9 × 10^2 in each case.

For the compound `CCCCCCCCNc1ccc([N+](=O)[O-])c2nonc12` [NBD–C8], the KPW→P with P–gp is 2.3 × 10^5; in series [2], 2.3 × 10^3. For the same compound, the KPLb→P in the series on P–gp is reported as 12; in series [2] it was 0.12. Moreover, the KPW→Lb in series [1] (setting [4]) and in series [1] (setting [5]) was 1.9 × 10^4 throughout.

As to `CCCCCCCCCCCCCC(=O)OCC(O)COP(=O)(O)OCCNc1ccc([N+](=O)[O-])c2nonc12` (stereo not shown) [NBD–LysoMPE], in series [3], the “CAC predicted in the presence of co-solvents” value was “at least 24 µM”.

Values taken from article PMC9862096, “Interaction of a Homologous Series of Amphiphiles with P-glycoprotein in a Membrane Environment—Contributions of Polar and Non-Polar Interactions” (Pharmaceutics, 2023).
